PMC10425210 (The Journal of Clinical Investigation, 2023)

Assay: Plasma pharmacokinetics after a single subcutaneous administration of LEN
Type: in vivo, rhesus macaques
Details: for concentration at 8 week: week 8 post dose; for concentration at 9 week: week 9 post dose; for concentration at 10 week: week 10 post dose; for concentration at 11 week: week 11 post dose; for concentration at 12 week: week 12 post dose; for concentration at 14 week: week 14 post dose
Method: All animals were housed at Bioqual Inc. For the in vivo SHIV stock titration study, 8 untreated outbred Indian-origin male rhesus macaques aged 3–5 years were challenged intrarectally per round for a total of 5 challenge rounds using increasing virus doses ranging from 0.625 to 100 TCID50, with the 100 TCID50 round performed twice for increased resolution (Supplemental Table 2). Plasma viral load was measured to confirm the infection status. […] Injection sites were monitored daily by veterinary staff for 2 weeks and then weekly through the end of study. On week 7, 11 animals were challenged by the intrarectal route with 1 mL RPMI containing 100 TCID50 SHIV-SF162P3. Whole blood was collected and processed into plasma and PBMCs as necessary for the assessment of routine hematology and clinical chemistry, viral load analysis, serology, and the bioanalysis of drug levels. Animals were considered protected if they remained SHIV negative by a plasma PCR assay and seronegative by enzyme immunoassay through week 10 after challenge.
Rhesus plasma samples were stored frozen at –80°C and thawed, and a 50 μL aliquot of each was treated with 200 μL acetonitrile containing an internal standard. After precipitation of the protein component, a 100 μL aliquot of the supernatant was transferred to a clean 96-well plate and mixed with 200 μL water. A 10 μL aliquot of the above solution was then injected into a Q-Exactive high resolution mass spectrometer from Thermo Electron with electrospray ionization in positive mode.

[1] = male, Indian-origin (outbred), rhesus monkey, plasma, subcutaneous, 5 mg/kg, Plasma LEN (Mean), 5 mg/kg sc
[2] = male, Indian-origin (outbred), rhesus monkey, plasma, subcutaneous, 10 mg/kg, Plasma LEN (Mean), 10 mg/kg sc
[3] = male, Indian-origin (outbred), rhesus monkey, plasma, subcutaneous, 20 mg/kg, Plasma LEN (Mean), 20 mg/kg sc

CC(C)(C#Cc1ccc(-c2ccc(Cl)c3c(NS(C)(=O)=O)nn(CC(F)(F)F)c23)c([C@H](Cc2cc(F)cc(F)c2)NC(=O)Cn2nc(C(F)(F)F)c3c2C(F)(F)[C@@H]2C[C@H]32)n1)S(C)(=O)=O [LEN, Lenacapavir]
dose proportionality of exposure (5 to 20 mg/kg sc): dose-proportional increase | dose proportionality of exposure (50 to 75 mg/kg sc): more than dose-proportional increase | Plasma LEN (animal BM55, 20 mg/kg, week 0 post challenge): 38.60 nM | Plasma LEN (animal BM55, 20 mg/kg, week 6 post challenge): 10.80 nM | Plasma LEN (animal BM55, 20 mg/kg, week 7 post challenge): 7.10 nM | Plasma LEN (animal BM55, 20 mg/kg, week 8 post challenge): 5.30 nM | Plasma LEN (animal BM55, 20 mg/kg, week 9 post challenge): 3.80 nM | Plasma LEN (animal BM55, 20 mg/kg, week 10 post challenge): 4.10 nM | Plasma LEN (animal BN33, 20 mg/kg, week 0 post challenge): 18.60 nM | Plasma LEN (animal BN33, 20 mg/kg, week 6 post challenge): 9.10 nM | Plasma LEN (animal BN33, 20 mg/kg, week 7 post challenge): 5.71 nM | Plasma LEN (animal BN33, 20 mg/kg, week 8 post challenge): 6.90 nM | Plasma LEN (animal BN33, 20 mg/kg, week 9 post challenge): 4.70 nM | Plasma LEN (animal BN33, 20 mg/kg, week 10 post challenge): 4.50 nM | Plasma LEN (animal CO92, 50 mg/kg, week 0 post challenge): 50.08 nM | Plasma LEN (animal CO92, 50 mg/kg, week 1 post challenge): 62.65 nM | Plasma LEN (animal CO92, 50 mg/kg, week 2 post challenge): 47.76 nM | Plasma LEN (animal CO92, 50 mg/kg, week 3 post challenge): 52.01 nM | Plasma LEN (animal CO92, 50 mg/kg, week 4 post challenge): 67.23 nM | Plasma LEN (animal CO92, 50 mg/kg, week 5 post challenge): 66.62 nM | Plasma LEN (animal CO92, 50 mg/kg, week 6 post challenge): 66.12 nM | Plasma LEN (animal CO92, 50 mg/kg, week 7 post challenge): 36.27 nM | Plasma LEN (animal CO92, 50 mg/kg, week 8 post challenge): 42.04 nM | Plasma LEN (animal CO92, 50 mg/kg, week 9 post challenge): 52.87 nM | Plasma LEN (animal CO92, 50 mg/kg, week 10 post challenge): 56.39 nM | Plasma LEN (animal CO92, 50 mg/kg, week 11 post challenge): 43.33 nM | Plasma LEN (animal CO92, 50 mg/kg, week 12 post challenge): 27.05 nM | Plasma LEN (animal CO92, 50 mg/kg, week 13 post challenge): 18.50 nM | Plasma LEN (animal CO92, 50 mg/kg, week 14 post challenge): 13.10 nM | Plasma LEN (animal CO92, 50 mg/kg, week 15 post challenge): 18.82 nM | Plasma LEN (animal CO92, 50 mg/kg, week 16 post challenge): 13.67 nM | Plasma LEN (animal CP67, 75 mg/kg, week 8 post challenge): 37.09 nM | Plasma LEN (animal CP67, 75 mg/kg, week 9 post challenge): 36.45 nM | Plasma LEN (animal CP67, 75 mg/kg, week 10 post challenge): 23.67 nM | Plasma LEN (animal CP67, 75 mg/kg, week 11 post challenge): 20.33 nM | Plasma LEN (animal V229, 20 mg/kg, week 0 post challenge): 37.30 nM | Plasma LEN (animal V229, 20 mg/kg, week 6 post challenge): 15.10 nM | Plasma LEN (animal V229, 20 mg/kg, week 7 post challenge): 8.33 nM | Plasma LEN (animal V229, 20 mg/kg, week 8 post challenge): 6.00 nM | Plasma LEN (animal V229, 20 mg/kg, week 9 post challenge): 3.70 nM | Plasma LEN (animal V229, 20 mg/kg, week 10 post challenge): 4.60 nM | Plasma LEN (animal V411, 50 mg/kg, week 0 post challenge): 143.42 nM | Plasma LEN (animal V411, 50 mg/kg, week 1 post challenge): 64.99 nM | Plasma LEN (animal V411, 50 mg/kg, week 2 post challenge): 55.43 nM | Plasma LEN (animal V411, 50 mg/kg, week 3 post challenge): 47.46 nM | Plasma LEN (animal V411, 50 mg/kg, week 4 post challenge): 28.61 nM | Plasma LEN (animal V411, 50 mg/kg, week 5 post challenge): 19.46 nM | Plasma LEN (animal V411, 50 mg/kg, week 6 post challenge): 17.89 nM | Plasma LEN (animal V411, 50 mg/kg, week 7 post challenge): 11.22 nM | Plasma LEN (animal V411, 50 mg/kg, week 8 post challenge): 7.46 nM | Plasma LEN (animal V411, 50 mg/kg, week 9 post challenge): 7.40 nM | Plasma LEN (animal V411, 50 mg/kg, week 10 post challenge): 5.89 nM | Plasma LEN (animal V411, 50 mg/kg, week 11 post challenge): 3.67 nM | Plasma LEN (animal V411, 50 mg/kg, week 12 post challenge): 2.40 nM | Plasma LEN (animal V411, 50 mg/kg, week 13 post challenge): 3.03 nM | Plasma LEN (animal V411, 50 mg/kg, week 14 post challenge): 2.52 nM | Plasma LEN (animal V411, 50 mg/kg, week 15 post challenge): 2.21 nM | Plasma LEN (animal V411, 50 mg/kg, week 16 post challenge): 1.79 nM | Plasma LEN (animal V417, 75 mg/kg, week 8 post challenge): 23.00 nM | Plasma LEN (animal V417, 75 mg/kg, week 9 post challenge): 32.44 nM | Plasma LEN (animal V417, 75 mg/kg, week 10 post challenge): 33.77 nM | Plasma LEN (animal V426, 75 mg/kg, week 8 post challenge): 36.31 nM | Plasma LEN (animal V426, 75 mg/kg, week 9 post challenge): 52.45 nM | Plasma LEN (animal V426, 75 mg/kg, week 10 post challenge): 38.56 nM | Plasma LEN (animal V426, 75 mg/kg, week 11 post challenge): 38.65 nM | Plasma LEN (animal V430, 50 mg/kg, week 0 post challenge): 117.17 nM | Plasma LEN (animal V430, 50 mg/kg, week 1 post challenge): 47.07 nM | Plasma LEN (animal V430, 50 mg/kg, week 2 post challenge): 55.06 nM | Plasma LEN (animal V430, 50 mg/kg, week 3 post challenge): 44.89 nM | Plasma LEN (animal V430, 50 mg/kg, week 4 post challenge): 40.12 nM | Plasma LEN (animal V430, 50 mg/kg, week 5 post challenge): 30.18 nM | Plasma LEN (animal V430, 50 mg/kg, week 6 post challenge): 23.37 nM | Plasma LEN (animal V430, 50 mg/kg, week 7 post challenge): 9.85 nM | Plasma LEN (animal V430, 50 mg/kg, week 8 post challenge): 6.90 nM | Plasma LEN (animal V430, 50 mg/kg, week 9 post challenge): 7.41 nM | Plasma LEN (animal V430, 50 mg/kg, week 10 post challenge): 7.29 nM | Plasma LEN (animal V430, 50 mg/kg, week 11 post challenge): 3.38 nM | Plasma LEN (animal V430, 50 mg/kg, week 12 post challenge): 2.44 nM | Plasma LEN (animal V430, 50 mg/kg, week 13 post challenge): 1.41 nM | Plasma LEN (animal V430, 50 mg/kg, week 14 post challenge): 1.81 nM | Plasma LEN (animal V430, 50 mg/kg, week 15 post challenge): 1.32 nM | Plasma LEN (animal V435, 75 mg/kg, week 7 post challenge): 3.85 nM | Plasma LEN (animal V435, 75 mg/kg, week 8 post challenge): 2.05 nM | Plasma LEN (animal V435, 75 mg/kg, week 9 post challenge): 2.10 nM | Plasma LEN (animal V435, 75 mg/kg, week 10 post challenge): 1.92 nM | Plasma LEN (animal V470, 50 mg/kg, week 0 post challenge): 100.49 nM | Plasma LEN (animal V470, 50 mg/kg, week 1 post challenge): 40.04 nM | Plasma LEN (animal V470, 50 mg/kg, week 2 post challenge): 48.42 nM | Plasma LEN (animal V470, 50 mg/kg, week 3 post challenge): 50.54 nM | Plasma LEN (animal V470, 50 mg/kg, week 4 post challenge): 46.19 nM | Plasma LEN (animal V470, 50 mg/kg, week 5 post challenge): 35.17 nM | Plasma LEN (animal V470, 50 mg/kg, week 6 post challenge): 44.02 nM | Plasma LEN (animal V470, 50 mg/kg, week 7 post challenge): 26.59 nM | Plasma LEN (animal V470, 50 mg/kg, week 8 post challenge): 17.23 nM | Plasma LEN (animal V470, 50 mg/kg, week 9 post challenge): 20.99 nM | Plasma LEN (animal V470, 50 mg/kg, week 10 post challenge): 19.02 nM | Plasma LEN (animal V470, 50 mg/kg, week 11 post challenge): 17.74 nM | Plasma LEN (animal V470, 50 mg/kg, week 12 post challenge): 12.55 nM | Plasma LEN (animal V470, 50 mg/kg, week 13 post challenge): 11.15 nM | Plasma LEN (animal V470, 50 mg/kg, week 14 post challenge): 8.52 nM | Plasma LEN (animal V470, 50 mg/kg, week 15 post challenge): 6.58 nM | Plasma LEN (animal V470, 50 mg/kg, week 16 post challenge): 6.37 nM | duration of plasma exposures above the paEC95 (8.8 nM) (eleven animals of the 3 highest dosing groups): over 10 weeks | concentration at 8 week [1]: 4.42 nM | concentration at 9 week [1]: 5.79 nM | concentration at 10 week [1]: 3.41 nM | concentration at 11 week [1]: 4.16 nM | concentration at 12 week [1]: 1.87 nM | concentration at 14 week [1]: 1.45 nM | concentration at 8 week [2]: 9.6 nM | concentration at 9 week [2]: 10.1 nM | concentration at 10 week [2]: 8.41 nM | concentration at 11 week [2]: 5.96 nM | concentration at 12 week [2]: 5.13 nM | concentration at 14 week [2]: 3.63 nM | concentration at 8 week [3]: 26.1 nM | concentration at 9 week [3]: 28 nM | concentration at 10 week [3]: 27.9 nM | concentration at 11 week [3]: 15 nM | concentration at 12 week [3]: 9.8 nM | concentration at 13 week (male, Indian-origin (outbred), rhesus monkey, plasma, subcutaneous, 20 mg/kg, Plasma LEN (Mean), 20 mg/kg sc, week 13 post dose): 11.7 nM | concentration at 14 week [3]: 7.07 nM | concentration at 15 week (male, Indian-origin (outbred), rhesus monkey, plasma, subcutaneous, 20 mg/kg, Plasma LEN (Mean), 20 mg/kg sc, week 15 post dose): 6.07 nM | concentration at 16 week (male, Indian-origin (outbred), rhesus monkey, plasma, subcutaneous, 20 mg/kg, Plasma LEN (Mean), 20 mg/kg sc, week 16 post dose): 4.07 nM | concentration at 17 week (male, Indian-origin (outbred), rhesus monkey, plasma, subcutaneous, 20 mg/kg, Plasma LEN (Mean), 20 mg/kg sc, week 17 post dose): 4.4 nM | concentration at 8 week (male, Indian-origin (outbred), rhesus monkey, plasma, subcutaneous, 50 mg/kg, Plasma LEN (Mean), 50 mg/kg sc): 53.7 nM
